Data reported in publication PMC7765098, “Non-Steroidal Anti-Inflammatory Drugs Increase Cisplatin, Paclitaxel, and Doxorubicin Efficacy against Human Cervix Cancer Cells” (Pharmaceuticals, 2020).
Read-outs that look alike come from different tables or passages of the source.

How the values were obtained:
[1] = test system: HeLa cells; test: Bidimensional HeLa cell proliferation (MTT assay), drugs alone or combined; assay type: cell-based, human; settings: for IC50: read-out: IC50, bidimensional HeLa cell growth; for decrement of the IC50 value: bidimensional HeLa, presence of either NSAID (celecoxib or DMC) vs monotherapy
Protocol: (§1) For cellular proliferation with and without drugs, the cell lines (20 × 10^3 cells/well) were grown as bidimensional in 96-well plates containing Dulbecco’s Modified Eagle’s Medium (DMEM) (Sigma-Aldrich) for 24 h.
(§2) The combination effect of NSAIDs and chemotherapy drugs on proliferation was also analyzed by determining the resistance index ratio (RI) and the combination index (CI) value.

[2] = test system: 3T3 fibroblasts; test: Bidimensional 3T3 fibroblast proliferation (MTT assay); assay type: cell-based, mouse; settings: read-out: IC50, bidimensional 3T3 cell growth
Protocol: as §1, §2

[3] = test system: MCF-10A mammary gland cells; test: Bidimensional MCF-10A cell proliferation (MTT assay); assay type: cell-based, human; settings: read-out: IC50, bidimensional MCF-10A cell growth
Protocol: as §1

[4] = test system: HeLa MCTS; test: HeLa multi-cellular tumor spheroid (MCTS) growth, preventive and curative protocols; assay type: cell-based, human
Protocol: HeLa, SiHa, and U373 (1 × 10^5 cells/mL) were seeded onto 2% (w/v) agarose-coated culture dishes in 5 mL DMEM. […] The growth of each MCTS was analyzed by fitting data to a logistic function for exponential growth using the Origin 8 software (Northampton MA, USA).
as §2

[5] = test system: HFF1 fibroblasts; test: Bidimensional HFF1 fibroblast proliferation (MTT assay); assay type: cell-based; settings: read-out: IC50, bidimensional HFF1 cell growth
Protocol: as §1

[6] = test system: OxPhos flux in HeLa cells; test: OxPhos flux (oligomycin-sensitive oxygen consumption) in HeLa cells; assay type: cell-based, human; settings: for OxPhos flux decrease: 5 µM celecoxib, 2 µM cisplatin, 15 µM paclitaxel, 24 h exposure; for OxPhos (mitochondrial flux) decrease, summary in Discussion: celecoxib or DMC alone, or combined with chemotherapy drugs
Protocol: For total oxygen consumption and OxPhos fluxes, HeLa, SiHa, or U373 cells or 3T3 fibroblasts (1 mg protein/mL), cultured for 24 h with the indicated drugs, were harvested and further incubated at 37 °C in air-saturated KR buffer and under constant agitation.

[7] = test system: glycolysis flux in HeLa cells; test: Glycolytic flux (lactate production) in HeLa cells; assay type: cell-based, human; settings: 5 µM celecoxib, 2 µM cisplatin, 15 µM paclitaxel, alone; 24 h exposure
Protocol: Glycolysis was started by adding 5 mM glucose (Sigma-Aldrich). Cellular samples were collected after 0 and 10 min of incubation, swiftly mixed with 30% (w/v) of cold perchloric acid, and centrifuged at 3500 rpm for 5 min. Supernatants were neutralized with 1N KOH/100 mM Tris. Cells were also incubated with 2-deoxyglucose (2-DG, 20 mM) (Sigma-Aldrich) to prevent lactate production by glycogen degradation. Lactate production was determined by the lactate dehydrogenase (Roche, Mannheim, Germany) coupled assay registering the NADH formation at 340 nm.

[8] = test system: HeLa cells; test: Cell invasiveness assay (Boyden chamber), HeLa; assay type: cell-based, human; settings: celecoxib (5 µM), paclitaxel (15 µM), cisplatin (2 µM), alone or combined, 24 h
Protocol: The lower compartment was filled with serum-free DMEM. After 24 h at 37 °C, the invasive cells found in the lower compartment were loaded with 60 nM calcein AM (acetomethylester) for 60 min.

[9] = test system: OxPhos flux in HeLa cells; settings: vs. non-treated cells; cited from earlier work
[10] = test system: COX-2; settings: at 100 µM; cited from earlier work
[11] = drug alone, 24 h of drug exposure
[12] = drug alone, 24 h of drug exposure, non-cancer
[13] = drug alone, added at the beginning of culture, determined at day 20 of growth, read-out: IC50, tridimensional HeLa MCTS, Preventive
[14] = drug alone, added once spheroids were formed (day 10), determined at day 20 of growth, read-out: IC50, tridimensional HeLa MCTS, Curative
[15] = Homo sapiens, HeLa, drug alone, 24 h of drug exposure
[16] = Homo sapiens, MCF-10A, drug alone, 24 h of drug exposure, non-cancer
[17] = Homo sapiens, HeLa, 480 h, read-out: IC50, tridimensional HeLa MCTS, Preventive
[18] = Homo sapiens, HeLa, read-out: IC50, tridimensional HeLa MCTS, Curative
[19] = Mus musculus, NIH3T3, drug alone, 24 h of drug exposure, non-cancer
[20] = Homo sapiens, HFF-1, drug alone, 24 h of drug exposure, non-cancer
[21] = Homo sapiens, HeLa, 480 h, drug alone, added at the beginning of culture, determined at day 20 of growth, read-out: IC50, tridimensional HeLa MCTS, Preventive
[22] = Homo sapiens, HeLa, drug alone, added once spheroids were formed (day 10), determined at day 20 of growth, read-out: IC50, tridimensional HeLa MCTS, Curative

N.N.O=C([O-])C1(C(=O)[O-])CCC1.[Pt+2] [Carboplatin, carboplatin]
IC50, bidimensional HeLa cell growth [1, 11]: in the mM range | IC50 [1, 11]: 1000 ± 400 µM | IC50 [2, 12]: > 5000 µM | IC50 [3, 12]: > 1000 µM | IC50 [4, 13]: 0.165 ± 0.028 µM | IC50 [4, 14]: 287 ± 43 µM

Cc1ccc(-c2cc(C(F)(F)F)nn2-c2ccc(S(N)(=O)=O)cc2)cc1 [Celecoxib, celecoxib]
IC50 [1, 15]: 55 ± 9 µM | IC50 ([2]; Mus musculus, NIH3T3, 24 h): 119 ± 7 µM | IC50 [3, 16]: > 100 µM | IC50 ([5]; Homo sapiens, HFF-1, 24 h): 96 ± 13 µM | decrease of chemotherapy drug IC50 values ([4]; HeLa MCTS, both preventive and curative protocols): > 70% | IC50 [4, 17]: 0.001 ± 0.0003 µM | IC50 [4, 18]: 7.5 ± 2 µM | OxPhos flux decrease ([6]; alone or in combination): 36–50% | OxPhos (mitochondrial flux) decrease, summary in Discussion [6]: 50–60% | glycolysis decrease [7]: 36–50% | decrease of invasiveness potential [8]: did not alter | OxPhos and mitochondrial membrane potential affected [9]: 50–80%

N.N.[Cl][Pt][Cl] [Cisplatin, cisplatin]
decrement of the IC50 value [1]: 38–66% | IC50 [1, 11]: 15 ± 3 µM | IC50 [3, 12]: 82 ± 4 µM | IC50 [5, 12]: 59 ± 26 µM | IC50 [4, 13]: 0.05 ± 0.017 µM | IC50 [4, 14]: 270 ± 20 µM | OxPhos flux decrease ([6]; alone or in combination): did not significantly affect | glycolysis decrease [7]: 40–60% | decrease of invasiveness potential [8]: did not alter

O=P1(N(CCCl)CCCl)NCCCO1 (stereo not shown) [Cyclophosphamide, cyclophosphamide]
IC50 ([1]; Homo sapiens, HeLa, 24 h): 16 ± 3 µM | IC50 ([2]; Mus musculus, NIH3T3, 24 h): > 1000 µM | IC50 ([3]; Homo sapiens, MCF-10A, 24 h): 102 ± 35 µM | IC50 [4, 17]: 0.136 ± 0.087 µM | IC50 [4, 18]: 315 ± 30 µM

Cc1ccc(C)c(-c2cc(C(F)(F)F)nn2-c2ccc(S(N)(=O)=O)cc2)c1 [DMC, 2,5-dimethylcelecoxib]
IC50 [1, 15]: 48 ± 2 µM | IC50 [2, 19]: 69 ± 8.5 µM | IC50 [3, 16]: > 100 µM | IC50 [5, 20]: 44 ± 11 µM | lowering of cisplatin and paclitaxel IC50 values ([4]; HeLa MCTS curative protocol): 45–73% | lowering of cisplatin and paclitaxel IC50 values ([4]; HeLa MCTS preventive protocol): 52–55% | IC50 [4, 21]: 0.01 ± 0.002 µM | IC50 [4, 22]: 32 ± 10 µM | inhibition at 15 µM ([6]; Homo sapiens, HeLa, DMC (15 µM), paclitaxel (20 µM), cisplatin (5 µM), alone or in combination, 24 h, n=1 (Figure S3)): 60% | OxPhos (mitochondrial flux) decrease, summary in Discussion [6]: 50–60% | COX-2 activity blocked [10]: 15%

COc1cccc2c1C(=O)c1c(O)c3c(c(O)c1C2=O)C[C@@](O)(C(=O)CO)C[C@@H]3O[C@H]1C[C@H](N)[C@H](O)[C@H](C)O1 [Doxorubicin, doxorubicin]
IC50 [1, 15]: 26 ± 6 µM | decrement of the IC50 value [1]: 38–66% | IC50 [2, 19]: 51 ± 18 µM | IC50 [3, 16]: 82 ± 25 µM | IC50 [5, 20]: 65 ± 19 µM | IC50 [4, 21]: 0.048 ± 0.007 µM | IC50 [4, 22]: 86 ± 5 µM

Nc1ccn([C@@H]2O[C@H](CO)[C@@H](O)C2(F)F)c(=O)n1 [Gemcitabine, gemcitabine]
IC50 [1, 15]: 30 ± 5 µM | IC50 [2, 19]: > 2000 µM | IC50 [3, 16]: > 1000 µM | IC50 [4, 21]: 0.065 ± 0.017 µM | IC50 [4, 22]: 128 ± 20 µM

CC(=O)O[C@H]1C(=O)[C@@]2(C)[C@H]([C@H](OC(=O)c3ccccc3)[C@]3(O)C[C@H](OC(=O)[C@H](O)[C@@H](NC(=O)c4ccccc4)c4ccccc4)C(C)=C1C3(C)C)[C@]1(OC(C)=O)CO[C@@H]1C[C@@H]2O [Paclitaxel]
IC50 [1, 15]: 21 ± 4 µM | IC50 [2, 19]: 80 ± 12 µM | IC50 [3, 16]: 100 ± 18 µM | IC50 [5, 20]: 68 ± 30 µM | IC50 [4, 21]: 0.016 ± 0.005 µM | IC50 [4, 22]: 26.5 ± 0.1 µM | OxPhos flux decrease ([6]; alone or in combination): did not significantly affect | glycolysis decrease [7]: 40–60% | decrease of invasiveness potential [8]: did not alter

Cc1c(C)c2c(c(C)c1OCC(=O)O)CC[C@@](C)(CCC[C@H](C)CCC[C@H](C)CCCC(C)C)O2 [α-TEA, α-tocopherol ether linked acetic acid analog]
IC50 [1, 15]: 4.7 ± 0.7 µM | IC50 [4, 21]: 0.025 ± 0.006 µM | IC50 [4, 22]: 30 ± 2 µM

Cc1c(C)c2c(c(C)c1OC(=O)CCC(=O)O)CC[C@@](C)(CCC[C@H](C)CCC[C@H](C)CCCC(C)C)O2 [α-TOS, α-tocopheryl succinate]
IC50 [1, 11]: 1.2 ± 0.46 µM | IC50 [4, 13]: 0.01 ± 0.004 µM | IC50 [4, 14]: 50 ± 11 µM

Casiopeina II-gly [CasII-gly]
decrease of IC50 values of cisplatin, paclitaxel, and doxorubicin ([1]; bidimensional HeLa cultures, co-added drug vs monotherapy): 19–54% | IC50 [1, 11]: 1.5 ± 0.9 µM | IC50 [2, 12]: 9 ± 2 µM | IC50 [3, 12]: 17 ± 3 µM | increase of cisplatin toxicity (decrease of cisplatin IC50) ([4]; HeLa MCTS): 84–96% | IC50 [4, 13]: 0.03 ± 0.0075 µM | IC50 [4, 14]: 106 ± 2 µM | decrease of IC50 values of cisplatin, paclitaxel, and doxorubicin ([4]; tridimensional HeLa cultures): 62–96%

methoxy-tocopheryl oxyacetic acid [M-TEA]
IC50 [1, 11]: 1.2 ± 0.48 µM
